# Test: DVS characterization of hygroscopicity and stability under different humidity
# Format: physicochemical
# Details: 25° C.
# Protocol: The dynamic vapor sorption (DVS) graph was collected on DVS Intrinsic of SMS (Surface Measurement Systems). The relative humidity at 25° C. was corrected by the deliquescent point of LiCl, Mg(NO3)2 and KCl.
# In order to evaluate the hygroscopicity and stability of anhydrous crystalline form E under different humidity conditions, DVS and XRPD tests were performed on crystalline form E samples at a constant temperature of 25° C.
smiles,measurement,setting,value
"CCN1C[C@]2(COC)CC[C@H](OC)[C@]34C5C[C@]6(O)[C@@H](OC)C[C@@](OC(C)=O)(C5[C@H]6OC(=O)c5ccc(OC)cc5)[C@H](C13)[C@H](OC)[C@H]24 (stereo partly drawn) [crystalline form E, (1α,6α,14α,16β)tetrahydro-8,13,14-triol-20-ethyl-1,6,16-trimethoxy-4-methoxymethyl-8-acetoxy-14-(4′-p-methoxybenzyl)-aconitane]",crystalline form before and after the DVS test (XRPD),,did not change
same,water adsorbed (DVS),humidity 80% RH,0.12%
same,hygroscopicity,"DVS, up to 80% RH",no hygroscopicity

# Source: patent US20220153704A1 (priority 2019, published 2022)
